Data on 27 molecules can be found in US20250340574A1, “MODULATORS OF CYSTIC FIBROSIS TRANSMEMBRANE CONDUCTANCE REGULATOR” (Vertex Pharmaceuticals Incorporated, priority 2022, published 2025).

Usually EC50 stands for the concentration at which the effect is half-maximal.

Where two headings read alike, the source gives them in different places.

Test [1] deals with T1, CFTR (F508del/MF-HBE cells) (Homo sapiens, UniProt P13569, DEL508-508).
T1 construct: human bronchial epithelial (HBE) cells derived from CF subjects heterozygous for F508del and a minimal function CFTR mutation (F508del/MF-HBE); endogenous in cells; host or cells: Primary human bronchial epithelial cells from CF subjects (F508del/MF genotype), differentiated at an air-liquid interface
In words: Ussing chamber assay of CFTR-mediated short-circuit currents, Assay C (0.026 μM to 25 μM, 6 concentrations). The class given is cell-based. The note with it: with 33 nM potentiator and 18 μM Tezacaftor, 20% human serum; for Emax: read-out: C Max activity (%). The method in brief:
(§1)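 F508del/MF-HBE cells grown at air-liquid interface were incubated 18-24 h at 37 °C in 20% human serum with correctors plus 18 μM tezacaftor and a fixed partner compound (33 nM for concentration series, 44 nM at 1 μM). ISC was read at 0 mV after 20 μM forskolin, minus the post-inhibitor current.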

Test [2] concerns the target T1, CFTR (F508del/MF-HBE cells). The test can be described thus: Ussing chamber assay of CFTR-mediated short-circuit currents, Assay D (single concentration of 1 μM). The test is classed as cell-based. The note with it: with 44 nM potentiator and 18 μM Tezacaftor, 20% human serum; for D activity at 1 μM (%): 18-24 hours. In a few lines: as §1

T1 sequence (P13569 with tags, fused parts or gaps DEL508-508): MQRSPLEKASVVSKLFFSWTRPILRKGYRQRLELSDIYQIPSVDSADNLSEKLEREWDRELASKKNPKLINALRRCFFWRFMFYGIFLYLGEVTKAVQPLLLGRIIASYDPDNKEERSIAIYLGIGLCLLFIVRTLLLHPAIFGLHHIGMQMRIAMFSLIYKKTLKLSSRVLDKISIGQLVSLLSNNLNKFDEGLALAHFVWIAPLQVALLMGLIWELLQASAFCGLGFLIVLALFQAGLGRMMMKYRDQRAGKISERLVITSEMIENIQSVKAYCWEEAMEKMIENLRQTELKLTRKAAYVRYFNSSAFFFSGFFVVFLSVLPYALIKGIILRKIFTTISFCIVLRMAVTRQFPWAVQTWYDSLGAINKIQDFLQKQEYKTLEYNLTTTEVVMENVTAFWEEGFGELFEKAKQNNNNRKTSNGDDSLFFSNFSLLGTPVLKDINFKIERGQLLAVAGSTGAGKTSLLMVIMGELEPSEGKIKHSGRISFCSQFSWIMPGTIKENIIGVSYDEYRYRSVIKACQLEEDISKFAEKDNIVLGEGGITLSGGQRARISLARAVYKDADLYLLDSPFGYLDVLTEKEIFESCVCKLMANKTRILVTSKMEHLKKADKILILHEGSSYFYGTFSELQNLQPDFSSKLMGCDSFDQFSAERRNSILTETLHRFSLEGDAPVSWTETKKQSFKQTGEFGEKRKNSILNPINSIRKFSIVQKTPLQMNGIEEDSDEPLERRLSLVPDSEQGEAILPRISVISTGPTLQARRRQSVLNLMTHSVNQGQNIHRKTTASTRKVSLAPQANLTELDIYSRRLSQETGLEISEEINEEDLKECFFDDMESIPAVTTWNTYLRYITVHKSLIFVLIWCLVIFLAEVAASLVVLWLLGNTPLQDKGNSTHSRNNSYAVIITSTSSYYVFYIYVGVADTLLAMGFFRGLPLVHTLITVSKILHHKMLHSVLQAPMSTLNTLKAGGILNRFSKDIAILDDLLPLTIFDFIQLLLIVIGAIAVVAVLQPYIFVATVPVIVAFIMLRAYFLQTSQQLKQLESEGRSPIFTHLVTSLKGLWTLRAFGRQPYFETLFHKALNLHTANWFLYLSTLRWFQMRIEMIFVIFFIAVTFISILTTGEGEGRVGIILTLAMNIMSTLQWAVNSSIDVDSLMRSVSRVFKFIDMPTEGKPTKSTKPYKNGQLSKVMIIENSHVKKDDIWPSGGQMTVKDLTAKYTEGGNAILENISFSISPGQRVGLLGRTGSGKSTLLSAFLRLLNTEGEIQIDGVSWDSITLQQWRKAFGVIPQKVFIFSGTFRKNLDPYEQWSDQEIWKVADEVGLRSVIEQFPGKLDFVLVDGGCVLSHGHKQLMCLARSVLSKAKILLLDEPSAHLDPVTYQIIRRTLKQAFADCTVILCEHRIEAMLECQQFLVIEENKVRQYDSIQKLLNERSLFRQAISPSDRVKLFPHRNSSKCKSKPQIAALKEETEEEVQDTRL

With `Cc1cccc(C)c1-c1cc2nc(n1)NS(=O)(=O)c1cccc(c1)C(=O)N(Cc1cnc3oc(-c4ccnn4C)cc3n1)[C@H](CC1(C)CC1)CO2` [IV-30], in test [1], the EC50 was 3000 to 30000 nM and the Emax is above 60%. For the same molecule, the “D act. at 1 μM (%)” value in test [2] is listed as “+++ (+++ is >60%)”.
The like results for `Cc1cccc(C)c1-c1cc2nc(n1)NS(=O)(=O)c1cccc(c1)C(=O)N(Cc1cnc3oc(C(C)(C)C)cc3n1)[C@@H](C(C1CCC1)C1CCC1)CO2` [IV-33] were, in that order, 3000 to 30000 nM, above 60% and “+++ (+++ is >60%)”.
`Cc1cccc(C)c1-c1cc2nc(n1)NS(=O)(=O)c1cccc(c1)C(=O)N(Cc1ncc3cc(C4CC4)n(C)c3n1)[C@H](CC13CC(C1)C3)CO2` [Compound I-264]: the Emax in test [1] (18-24 hours) was above 60%. For the same molecule, in test [1], the EC50 lay in the range of 1000 to 3000 nM. In addition, in test [2], the “D activity at 1 μM (%)” value is “+++ (+++ is >60%)”.
The like results for `Cc1cccc(C)c1-c1nc2nc(c1C)OC[C@@H](C[C@H]1CCCCO1)N(Cc1cnc3cc(C4CC4)n(C)c3n1)C(=O)c1cccc(c1)S(=O)(=O)N2` [Compound I-193] were, in that order, above 60%, below 1000 nM and “+++ (+++ is >60%)”.
With `Cc1cccc(C)c1-c1cc2nc(n1)NS(=O)(=O)c1cccc(c1)C(=O)N(Cc1cnc3oc(C4(C)CC4)cc3n1)[C@@H](C(C(C)C)C(C)C)CO2` (stereo in doubt) [IV-31], in test [1], the EC50 was below 1000 nM and the Emax is above 60%. The “D act. at 1 μM (%)” value in test [2] is “+++ (+++ is >60%)”.
As for `Cc1cccc(COC(C)C)c1-c1nc2nc(c1C)OC[C@@H](CC(C)(C)C)N(Cc1cnc3oc(C4CC4)cc3n1)C(=O)c1cccc(c1)S(=O)(=O)N2` [IV-39], in test [1], the EC50 lay within 1000 to 3000 nM and the Emax was above 60%. For the same molecule, the “D act. at 1 μM (%)” value in test [2] is “+++ (+++ is >60%)”.
On to `Cc1cccc(CC(C)C)c1-c1nc2nc(c1C)OC[C@@H](CC(C)(C)C)N(Cc1ncc3cc(C(C)(C)C)n(C)c3n1)C(=O)c1cccc(c1)S(=O)(=O)N2` (atropisomer, axis not shown) [IV-47], for which, in test [1], the EC50 is 1000 to 3000 nM and the Emax was above 60%. Further, in test [2], the “D act. at 1 μM (%)” value is recorded as “+++ (+++ is >60%)”.
With `Cc1cccc(C)c1-c1nc2nc(c1C)OC[C@@H](CC13CC(C1)C3)N(Cc1cnc3oc(C4(C)CC4)cc3n1)C(=O)c1cccc(c1)S(=O)(=O)N2` [Compound I-231], the Emax in test [1] (18-24 hours) is above 60%. Moreover, in test [1], the EC50 was below 1000 nM. Besides, the “D activity at 1 μM (%)” value in test [2] was “+++ (+++ is >60%)”.
As to `Cc1cccc(CCC(C)C)c1-c1nc2nc(c1C)OC[C@@H](CC(C)(C)C)N(Cc1cnc3oc(C4CC4)cc3n1)C(=O)c1cccc(c1)S(=O)(=O)N2` (atropisomer, axis not shown) [Compound I-204], the Emax in test [1] (18-24 hours) was above 60%. Also, the EC50 in test [1] is below 1000 nM. The “D activity at 1 μM (%)” value in test [2] is “+++ (+++ is >60%)”.
Take `CCC(C)(C)C[C@H]1COc2cc(-c3c(C)cccc3C)nc(n2)NS(=O)(=O)c2cccc(c2)C(=O)N1Cc1cnc2oc(C3CC3)cc2n1` [IV-34]: in test [1], the EC50 is 1000 to 3000 nM and the Emax was above 60%. The “D act. at 1 μM (%)” value in test [2] is “+++ (+++ is >60%)”.
Regarding `COc1c2nc(nc1-c1c(C)cccc1C)NS(=O)(=O)c1cccc(c1)C(=O)N(Cc1cnc3cc(C4(C)CC4)n(C)c3n1)[C@H](COC(C)C)CO2` [IV-11], in test [1], the EC50 is below 1000 nM and the Emax is above 60%. For the same molecule, the “D act. at 1 μM (%)” value in test [2] was “+++ (+++ is >60%)”.
Turning to `Cc1cccc(C)c1-c1cc2nc(n1)NS(=O)(=O)c1cccc(c1)C(=O)N(Cc1cnc3cc(C4CC4)n(C)c3n1)[C@@H](CCC1(C)CC1)CO2` (stereo in doubt) [Compound I-207], the Emax in test [1] (18-24 hours) was above 60%. For the same molecule, the EC50 in test [1] was below 1000 nM. Also, the “D activity at 1 μM (%)” value in test [2] is given as “+++ (+++ is >60%)”.
As for `Cc1cccc(CC(C)C)c1-c1nc2nc(c1C)OC[C@@H](CC1(C)CC1)N(Cc1cnc3cc(C(C)(C)C)n(C)c3n1)C(=O)c1cccc(c1)S(=O)(=O)N2` (atropisomer, axis not shown) [IV-44], in test [1], the EC50 lay in the range of 1000 to 3000 nM and the Emax was above 60%. The “D act. at 1 μM (%)” value in test [2] was “+++ (+++ is >60%)”.
Turning to `Cc1cccc(C)c1-c1nc2nc(c1C)OC[C@@H](CC13CC(C1)C3)N(Cc1cnc3cc(C4(C)CC4)n(C)c3n1)C(=O)c1cccc(c1)S(=O)(=O)N2` [Compound I-228], the Emax in test [1] (18-24 hours) is above 60%. Also, in test [1], the EC50 is below 1000 nM. For the same molecule, the “D activity at 1 μM (%)” value in test [2] is “+++ (+++ is >60%)”.
The matching figures for `Cc1cccc(C)c1-c1cc2nc(n1)NS(=O)(=O)c1cccc(c1)C(=O)N(Cc1cnc3oc(C)c(C4CC4)c3n1)[C@H](CC13CC(C1)C3)CO2` [Compound I-86]: above 60%, 1000 to 3000 nM and “+++ (+++ is >60%)”.
The like results for `Cc1cccc(C2CC2)c1-c1nc2nc(c1C)OC[C@@H](CC(C)(C)C)N(Cc1cnc3oc(C4CC4)cc3n1)C(=O)c1cccc(c1)S(=O)(=O)N2` (atropisomer, axis not shown) [Compound I-152] were, in that order, above 60%, below 1000 nM and “+++ (+++ is >60%)”.
The like results for `Cc1cccc(C)c1-c1nc2nc(c1C)OC[C@@H](C[C@H]1CCCCO1)N(Cc1cnc3cc(C(C)C)n(C)c3n1)C(=O)c1cccc(c1)S(=O)(=O)N2` [Compound I-194] were, in that order, above 60%, below 1000 nM and “+++ (+++ is >60%)”.
Turning to `Cc1cccc(CC(C)C)c1-c1nc2nc(c1C)OC[C@@H](CC(C)(C)C)N(Cc1cnc3oc(C4CC4)cc3n1)C(=O)c1cccc(c1)S(=O)(=O)N2` (atropisomer, axis not shown) [Compound I-137], the Emax in test [1] (18-24 hours) is above 60%. In addition, the EC50 in test [1] is below 1000 nM. Also, the “D activity at 1 μM (%)” value in test [2] is reported as “+++ (+++ is >60%)”.
The matching figures for `Cc1cccc(C)c1-c1nc2nc(c1C)OC[C@@H](CC(C)(C)C)N(Cc1cnc3cc(C(C)C)n(C)c3n1)C(=O)c1cccc(c1)S(=O)(=O)N2` [Compound I-168]: above 60%, below 1000 nM and “+++ (+++ is >60%)”.
The matching figures for `Cc1cccc(CC(C)C)c1-c1nc2nc(c1C)OC[C@@H](COC(C)C)N(Cc1cnc3cc(C(C)C)n(C)c3n1)C(=O)c1cccc(c1)S(=O)(=O)N2` (atropisomer, axis not shown) [Compound I-211]: above 60%, below 1000 nM and “+++ (+++ is >60%)”.
The like results for `Cc1cccc(C)c1-c1cc2nc(n1)NS(=O)(=O)c1cccc(c1)C(=O)N(Cc1cnc3cc(C4(C)CC4)n(C)c3n1)[C@H](COC(C)C)CO2` [Compound I-240] were, in that order, above 60%, below 1000 nM and “+++ (+++ is >60%)”.
In the case of `Cc1cccc(C)c1-c1cc2nc(n1)NS(=O)(=O)c1cccc(c1)C(=O)N(Cc1cnc3cc(C4(C)CC4)n(C)c3n1)[C@@H](C(C1CCC1)C1CCC1)CO2` (single isomer, unassigned) [IV-20, 11-[di(cyclobutyl)methyl]-6-(2,6-dimethylphenyl)-12-[[5-methyl-6-(1-methylcyclopropyl)pyrrolo[2,3-b]pyrazin-3-yl]methyl]-2,2-dioxo-9-oxa-2λ^6-thia-3,5,12,19-tetrazatricyclo[12.3.1.14,8]nonadeca-1(18),4(19),5,7,14,16-hexaen-13-one], in test [1], the EC50 was below 1000 nM and the Emax is above 60%. Besides, in test [2], the “D act. at 1 μM (%)” value was “+++ (+++ is >60%)”.
The like results for `Cc1cccc(C)c1-c1cc2nc(n1)NS(=O)(=O)c1cccc(c1)C(=O)N(Cc1ncc3cc(C(C)(C)C)n(C)c3n1)[C@H](CC(C)(C)C)CO2` [IV-38] were, in that order, 1000 to 3000 nM, above 60% and “+++ (+++ is >60%)”.
As for `Cc1cccc(C)c1-c1cc2nc(n1)NS(=O)(=O)c1cccc(c1)C(=O)N(Cc1cnc3cc(C(C)(C)C)n(C)c3n1)[C@H](CC(C)(C)C)CO2` [Compound I-239], in test [1] (18-24 hours), the Emax is above 60%. For the same molecule, the EC50 in test [1] was below 1000 nM. Further, in test [2], the “D activity at 1 μM (%)” value is recorded as “+++ (+++ is >60%)”.
With `Cc1cccc(C)c1-c1cc2nc(n1)NS(=O)(=O)c1cccc(c1)C(=O)N(Cc1cnc3cc(C(C)(C)C)n(C)c3n1)[C@@H](C(C(C)C)C(C)C)CO2` [IV-32], in test [1], the EC50 was below 1000 nM and the Emax was above 60%. The “D act. at 1 μM (%)” value in test [2] is “+++ (+++ is >60%)”.
The matching figures for `Cc1cccc(C)c1-c1cc2nc(n1)NS(=O)(=O)c1cccc(c1)C(=O)N(Cc1cnc3oc(COC(C)C)cc3n1)[C@H](CC1(C)CC1)CO2` [IV-18]: 1000 to 3000 nM, above 60% and “+++ (+++ is >60%)”.
The matching figures for `Cc1cccc(C)c1-c1cc2nc(n1)NS(=O)(=O)c1cccc(c1)C(=O)N(Cc1cnc3oc(CC(C)C)cc3n1)[C@H](CC1(C)CC1)CO2` [IV-24, (11R)-6-(2,6-dimethylphenyl)-12-[(6-isobutylfuro[2,3-b]pyrazin-2-yl)methyl]-11-[(1-methylcyclopropyl)methyl]-2,2-dioxo-9-oxa-2λ^6-thia-3,5,12,19-tetrazatricyclo[12.3.1.14,8]nonadeca-1(18),4(19),5,7,14,16-hexaen-13-one]: 3000 to 30000 nM, above 60% and “+++ (+++ is >60%)”.
